Test results as given in patent publication US11026942B2, “Agent for preventing and/or treating Alzheimer's disease” (KYOTO UNIVERSITY, priority 2015, dated 2021).

Legend:
Format in all cases: cell-based, human
[1] = test system: Aβ42; assay: Aβ42 in FAD1 iPS cell-derived nerve cells (primary/secondary screening, dose dependency); conditions: secondary screening, FAD1 iPS cell-derived nerve cells, numerical value (Aβ change rate)
Summary of the method: (§1)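 Cerebral cortex neurons were induced from FAD1 patient iPS cells by doxycycline-inducible NGN2, delivered by PiggyBac. Aβ40 and Aβ42 in the culture medium gave the Aβ42/40 ratio, with dose dependency examined in primary and secondary screens. The secondary screen also covered Aβ38, Aβ43, sAPPα and sAPPβ.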

[2] = test system: Aβ42/40 ratio; assay: Aβ42/40 ratio in FAD1 iPS cell-derived nerve cells (primary/secondary screening, dose dependency); conditions: secondary screening
Summary of the method: as §1

[3] = test system: Aβ43; assay: Aβ43 in FAD1 iPS cell-derived nerve cells (secondary screening); design: scale not given here
Procedure: (§2) To further study reproducibility of the candidate drugs obtained by the primary screening, secondary screening was conducted. In addition to Aβ40, Aβ42, Aβ42/40 ratio, Aβ38, Aβ43, sAPPα, sAPPβ were also studied and each numerical value was obtained.

[4] = test system: sAPPβ; assay: sAPPβ in FAD1 iPS cell-derived nerve cells (secondary screening); design: sAPPβ: scale not given here; conditions: secondary screening, FAD1 iPS cell-derived nerve cells
Procedure: as §2

[5] = test system: Aβ38; assay: Aβ38 in FAD1 iPS cell-derived nerve cells (secondary screening); design: scale not given here
Procedure: as §2

[6] = test system: Aβ40; conditions: secondary screening, FAD1 iPS cell-derived nerve cells, numerical value (Aβ change rate)
Description: To perform induction from iPS cells to the cerebral cortex nerve early and with high reproducibility, iPS cells introduced with human Neurogenin 2 gene (NGN2) linked to doxycycline-inducible promoter by using PiggyBac were used (FIG. 1a, FIG. 1b, FIG. 4a and FIG. 4b). IPS cells prepared from 4 patients with familial Alzheimer's disease (FAD), 2 patients with sporadic Alzheimer's disease (SAD) and 4 healthy individuals (HC) were used. The iPS cells were established by the method described in Okita K et al., Nature.
Structural formulas (those in the form of salt or halide are also described as free form) and the general names of the candidate compounds are shown in Table 1.
as §2

[7] = test system: sAPPα; assay: sAPPα in FAD1 iPS cell-derived nerve cells (secondary screening); design: scale not given here; conditions: secondary screening, FAD1 iPS cell-derived nerve cells
Procedure: as §2

CARBADOX [compound 29]
Aβ42 [1]: 0.74 | Ratio Aβ42/40 [2]: 0.88 | Aβ43 [3]: 0.76 | sAPPβ [4]: 0.78 | Aβ38 [5]: 0.87 | Aβ40 [6]: 0.84 | sAPPα [7]: 0.86
